Measurements reported in ChEMBL document CHEMBL6182898, “Design, synthesis and bioevaluation of novel hydrazide derivatives as enhancers of immunotherapy and DNA-damage response in antitumor therapy” (Eur J Med Chem, 2025).
Values belong to the compound of their own block, whether it stands above or below them. Active and inactive are the calls of the source. No cut-off for these calls is given here.

What was measured:
[1] = test system: HCT-116; assay: Antiproliferative activity against human HCT-116 cells incubated for 72 hrs by MTT assay; format: functional, cell-based; conditions: HCT-116, 72 h
[2] = test system: B16-F10; assay: Anti-migratory activity in mouse B16-F10 cells at 1.25 to 5 uM measured after 36 hrs by wound healing assay relative to control; format: functional; conditions: dose 1.25-5 µM
[3] = test system: B16-F10; assay: Inhibition of cell migration in mouse B16-F10 cells at 5 uM by transwell assay relative to control; format: functional
[4] = molecular target: T1, Histone deacetylase 3 (Mus musculus) (UniProt O88895); assay: Inhibition of HDAC3 in mouse B16-F10 cells assessed as increase in Ac-H3K56 level at 2.5 to 10 uM incubated for 24 hrs by Western blot analysis; format: cell-based; conditions: dose 2.5-10 µM
T1 sequence (whole entry): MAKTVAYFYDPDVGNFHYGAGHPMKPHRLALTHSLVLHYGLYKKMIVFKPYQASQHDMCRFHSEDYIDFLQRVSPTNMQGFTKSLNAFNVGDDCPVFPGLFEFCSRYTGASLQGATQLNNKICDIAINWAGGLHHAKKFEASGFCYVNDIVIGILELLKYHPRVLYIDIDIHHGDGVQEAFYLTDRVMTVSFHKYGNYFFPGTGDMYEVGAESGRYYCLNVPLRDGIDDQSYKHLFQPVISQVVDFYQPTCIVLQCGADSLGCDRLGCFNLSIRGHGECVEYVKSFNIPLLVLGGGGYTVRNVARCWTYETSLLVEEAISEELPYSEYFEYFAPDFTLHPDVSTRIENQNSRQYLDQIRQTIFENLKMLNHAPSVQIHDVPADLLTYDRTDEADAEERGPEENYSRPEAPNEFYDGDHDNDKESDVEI

[5] = test system: K562; assay: cells; format: functional; conditions: Homo sapiens, time 72 hrs
[6] = molecular target: T2, Histone deacetylase 8 (Homo sapiens, UniProt Q9BY41); assay: Inhibition of HDAC8 (unknown origin)
T2 sequence (Q9BY41 whole entry): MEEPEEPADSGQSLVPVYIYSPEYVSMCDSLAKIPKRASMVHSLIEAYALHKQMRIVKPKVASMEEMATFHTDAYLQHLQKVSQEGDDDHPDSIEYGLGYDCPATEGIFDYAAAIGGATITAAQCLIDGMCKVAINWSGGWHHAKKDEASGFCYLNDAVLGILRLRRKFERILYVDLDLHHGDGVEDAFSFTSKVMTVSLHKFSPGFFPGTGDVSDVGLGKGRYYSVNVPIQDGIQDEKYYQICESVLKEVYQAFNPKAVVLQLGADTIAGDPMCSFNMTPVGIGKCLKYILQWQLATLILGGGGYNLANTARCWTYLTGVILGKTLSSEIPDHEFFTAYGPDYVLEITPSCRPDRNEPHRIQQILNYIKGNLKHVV

[7] = test system: B16-F10; assay: Induction of antitumor immunity in mouse B16-F10 cells assessed as decrease in NCOR2 level at 2.5 to 10 uM incubated for 24 hrs by Western blot analysis; format: functional, cell-based; conditions: dose 2.5-10 µM
[8] = molecular target: T1, Histone deacetylase 3 (Mus musculus); assay: Inhibition of HDAC3 in mouse B16-F10 cells assessed as increase in Ac-H3 level incubated for 24 hrs by Western blot analysis; format: cell-based; conditions: dose 2.5-10 µM
[9] = test system: B16-F10; assay: Antiproliferative activity against mouse B16-F10 cells incubated for 72 hrs by MTT assay; format: functional, cell-based; conditions: B16-F10, 72 h
[10] = test system: Mus musculus; assay: Effect on Ac-alpha-tubulin in mouse B16-F10 cells implanted in male C57BL/6J mouse at 50 mg/kg, IG treated for 14 days consecutively by Western blot analysis; format: functional, organism-based; conditions: time 14.0 day
[11] = Toxicity in male C57BL/6J mouse implanted with mouse B16-F10 cells assessed as body weight change at 50 mg/kg, IG treated for 14 days consecutively; format: organism-based; conditions: in vivo, po, 336 h, time 14 day
[12] = Clearance in male Sprague-Dawley rat at 2 mg/kg, iv measured for 0.083 to 12 hrs by LC-MS/MS analysis; format: ADME, organism-based; conditions: in vivo, time 0.083-12 hrs
[13] = test system: B16-F10; assay: Induction of antitumor immunity in mouse B16-F10 cells implanted in male C57BL/6J mouse assessed as CD3+CD8+ T cell infiltration at 50 mg/kg, IG treated for 14 days consecutively by flow cytometry (reference value: 10 %); format: functional; conditions: time 14 day
[14] = AUC (0 to t) in male Sprague-Dawley rat at 2 mg/kg, iv measured for 0.083 to 12 hrs by LC-MS/MS analysis; format: ADME, organism-based; conditions: in vivo, time 0.083-12 hrs
[15] = AUMC (0 to t) in male Sprague-Dawley rat at 2 mg/kg, iv measured for 0.083 to 12 hrs by LC-MS/MS analysis; format: ADME, organism-based; conditions: in vivo, time 0.083-12 hrs
[16] = Tmax in male Sprague-Dawley rat at 2 mg/kg, iv measured for 0.083 to 12 hrs by LC-MS/MS analysis; format: ADME, organism-based; conditions: in vivo, time 0.083-12 hrs
[17] = test system: 4T1; assay: Induction of DNA damage in mouse 4T1 cells implanted in mouse assessed as decrease in PARP level at 50 mg/kg/day by Western blot analysis; format: functional, organism-based
[18] = MRT (0 to infinity) in male Sprague-Dawley rat at 20 mg/kg, po measured for 0.083 to 12 hrs by LC-MS/MS analysis; format: ADME, organism-based; conditions: in vivo, time 0.083-12 hrs
[19] = test system: 4T1; assay: Synergistic induction of DNA damage in mouse 4T1 cells implanted in mouse assessed as increase in gamma-H2AX level at 25 mg/kg/day in presence of olaparib by immunofluorescence based analysis; format: functional, organism-based
[20] = test system: 4T1; assay: Induction of DNA damage in mouse 4T1 cells implanted in mouse assessed as increase in gamma-H2AX level at 50 mg/kg/day by Western blot analysis; format: functional, organism-based
[21] = Apparent volume of distribution in male Sprague-Dawley rat at 20 mg/kg, po measured for 0.083 to 12 hrs by LC-MS/MS analysis; format: ADME, organism-based; conditions: in vivo, time 0.083-12 hrs
[22] = MRT (0 to infinity) in male Sprague-Dawley rat at 2 mg/kg, iv measured for 0.083 to 12 hrs by LC-MS/MS analysis; format: ADME, organism-based; conditions: in vivo, time 0.083-12 hrs
[23] = molecular target: Programmed cell death 1 ligand 1 (Mus musculus) (UniProt Q9EP73); assay: Induction of PD-L1 degradation in mouse B16-F10 cells assessed as increase in CTSB level at 0.313 to 10 uM incubated for 24 hrs by Western blot analysis; format: cell-based; conditions: dose 0.313-10 µM
[24] = VRT (0 to t) in male Sprague-Dawley rat at 2 mg/kg, iv measured for 0.083 to 12 hrs by LC-MS/MS analysis; format: ADME, organism-based; conditions: in vivo, time 0.083-12 hrs
[25] = AUC (0 to t) in male Sprague-Dawley rat at 20 mg/kg, po measured for 0.083 to 12 hrs by LC-MS/MS analysis; format: ADME, organism-based; conditions: in vivo, time 0.083-12 hrs
[26] = test system: 4T1; assay: Synergistic induction of DNA damage in mouse 4T1 cells implanted in mouse assessed as decrease in PARP level at 25 mg/kg/day in presence of olaparib by Western blot analysis; format: functional, organism-based
[27] = test system: 4T1; assay: Synergistic antitumor activity against mouse 4T1 cells implanted in mouse at 25 mg/kg/day in presence of olaparib relative to control; format: functional; conditions: read-out: TGI
[28] = test system: 4T1; assay: Synergistic induction of DNA damage in mouse 4T1 cells implanted in mouse assessed as decrease in PARP level at 25 mg/kg/day in presence of olaparib by IHC analysis; format: functional, organism-based

Sequence of Programmed cell death 1 ligand 1 (Mus musculus) (Q9EP73 whole entry): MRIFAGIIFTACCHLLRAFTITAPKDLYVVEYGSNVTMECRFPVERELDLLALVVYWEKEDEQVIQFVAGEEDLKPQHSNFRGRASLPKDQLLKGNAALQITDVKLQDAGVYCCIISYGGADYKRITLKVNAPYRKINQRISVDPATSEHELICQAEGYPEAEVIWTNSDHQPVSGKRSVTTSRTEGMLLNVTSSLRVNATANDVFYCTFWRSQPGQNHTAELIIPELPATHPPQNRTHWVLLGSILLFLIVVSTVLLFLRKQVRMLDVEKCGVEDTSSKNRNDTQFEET

IC50 [1]: 1.67 µM
inhibition [4]: Active
IC50 [6]: > 10 µM
inhibition [8]: Dose-dependent-effect
IC50 [9]: 6.07 µM
Structure (SMILES): CCCNNC(=O)c1ccc(NC(=O)c2cnc(-c3ccc(OC(F)(F)F)cc3)s2)cc1
Activity [2]: >80%
inhibition at 5 µM [3]: > 70%
inhibition at 10 µM [5]: 52.6%
Activity [7]: Active

clearance [12]: 53.8 mL/min/kg
AUC(0-t) [14]: 657 ng·h/mL
AUMCt [15]: 223.08 hr.hr.ug/L
Tmax [16]: 4.8 min
IC50 [1]: 3.31 µM
MRT inf [18]: 188 min
inhibition [4]: Active
IC50 [6]: > 10 µM
Vz [21]: 2785.62 L/kg
MRT inf [22]: 22.2 min
VRT(t) [24]: 0.55 h²
AUC(0-t) [25]: 30.8 ng·h/mL
inhibition [8]: Dose-dependent-effect
IC50 [9]: 5.22 µM
Structure (SMILES): CCCNNC(=O)CCCCCCNC(=O)c1cnc(-c2ccc(NC(=O)OC(C)(C)C)cc2)s1
Activity [10]: No effect
Activity [11]: Non-toxic
Activity [13]: 22%
Activity [17]: Active
Activity [2]: >80%
inhibition at 5 µM [3]: > 70%
Activity [19]: Active
inhibition at 10 µM [5]: 73.1%
Activity [20]: Active
Activity [23]: Active
Activity [7]: Active
Activity [26]: Active
inhibition in vivo at 25 mg/kg/day [27]: 88%
Activity [28]: Active
